Assay [1] deals with C. albicans NCPF3281. Nature of the assay: Candida panel MIC, serial dilution in 96-well plates. The note with it: NCPF3281, read-out: MIC C. albicans NCPF3281. The assay is classed as cell-based, Candida albicans. An outline of the steps: (§1)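 RPMI/MOPS/2% glucose pH 7.0; 2-fold series 128→0.25 μg/mL; inoculum 0.5-5×10^5/mL; 37 °C, 24 h; OD530 read; MIC at ≥50% growth inhibition vs drug-free control.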

Assay [2] relates to C. glabrata NCPF8018. Described as above. The assay is classed as cell-based, Candida glabrata. Particulars: Nakaseomyces glabratus. In outline:
(§2)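 MIC taken as lowest concentration inhibiting growth ≥50% relative to drug-free control, from OD530 after 24 hours at 37° C. Fungi at 0.5-5×10^5/mL were exposed to serially diluted compound in RPMI 1640/MOPS/2% glucose medium adjusted to pH 7.0.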

Assay [3] relates to C. krusei NCPF3876. The assay can be described thus: microbe, parasite or virus in culture. The format is cell-based, Candida krusei. The note with it: Pichia kudriavzevii. An outline of the steps: as §2
In assay [4] the test system is C. parapsilosis NCPF3209. Nature of the assay: microbe, parasite or virus in culture. The note with it: Lodderomyces parapsilosis. The format is cell-based, Candida parapsilosis. An outline of the steps: as §2
Assay [5] has as its system Candida auris TDG2211. The assay can be described thus: microbe, parasite or virus in culture. The format is cell-based. The note with it: Candidozyma auris, TDG2211; Table 4, extended panel; 24 hours, ≥50% inhibition; read-out: MIC Candida auris TDG2211. In outline: (§3)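 Growth inhibition was scored by OD530 nm after a 24 h, 37° C incubation of C. auris (0.5-5×10^5/mL) with compound dilutions in buffered RPMI glucose medium.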

Assay [6] relates to Candida auris TDG2506. The assay can be described thus: microbe, parasite or virus in culture. The assay is classed as cell-based. The note with it: Candidozyma auris, TDG2506; Table 4, extended panel; 24 hours, ≥50% inhibition; read-out: MIC Candida auris TDG2506. In outline:
as §3

For assay [7], the system named is C. auris TDG1912. The assay can be described thus: Candida panel MIC, serial dilution in 96-well plates. The note with it: Candidozyma auris, TDG1912; Table 4; 24 hours, ≥50% inhibition; read-out: MIC C. auris TDG1912. The format is cell-based. An outline of the steps: as §1
For assay [8], the system named is C. tropicalis NCPF8760. The description is as above. The assay is classed as cell-based. An outline of the steps:
as §1

Assay [9] has as its system Candida auris TDG1102. The assay is described as above. The note with it: Candidozyma auris, TDG1102; Table 4, extended panel; 24 hours, ≥50% inhibition; read-out: MIC Candida auris TDG1102. The format is cell-based. In outline:
as §1

Assay [10] relates to Candida auris TDG2512. Described as above. The format is cell-based. The note with it: Candidozyma auris, TDG2512; Table 4, extended panel; 24 hours, ≥50% inhibition; read-out: MIC Candida auris TDG2512. In outline:
as §1

Assay [11] concerns C. auris 8971. The assay is described as above. The format is cell-based, Candida auris. The note with it: Candidozyma auris, 8971; Table 4, extended panel; 24 hours, ≥50% inhibition; read-out: MIC C. auris 8971. An outline of the steps:
as §3

Assay [12] deals with C. auris 8977. Described as above. The format is cell-based, Candida auris. Particulars: Candidozyma auris, 8977; Table 4, extended panel; 24 hours, ≥50% inhibition; read-out: MIC C. auris 8977. In outline:
as §3

The test system of assay [13] is C. auris 8984. Described as above. The format is cell-based, Candida auris. The note with it: Candidozyma auris, 8984; Table 4, extended panel; 24 hours, ≥50% inhibition; read-out: MIC C. auris 8984. In outline: as §3
For assay [14], the system named is C. albicans 3363. The assay can be described thus: Candida albicans panel MIC. The assay is classed as cell-based. Particulars: Table 6, Candida albicans panel. The protocol:
(§4) The minimum inhibitory concentration of test compounds were determined in a panel of Candida species (see Table 4 below), using the a serial dilution method in 96-well plates using the following protocol.
(§5) Starter cultures of fungal strains to be tested were grown in 3 mL of RPMI 2% glucose media incubated at 37° C. with shaking at 200 rpm overnight. The culture media used was 900 mL H2O; 10.4 g RPMI 1640 (with L-glutamine and a pH indicator but without bicarbonate); 34.5 g MOPS and 18 g glucose. The pH of the media was adjusted to 7.0 with 1 M sodium hydroxide.
(§6) Solutions of the compound to be tested were prepared by dissolving the compound in DMSO and subsequently into media to the desired concentrations. 200 μL of compound solution was then added to the wells of the 96-well plate using a serial dilution method row-by row of the plate to give a compound concentration gradient across the plate of from 128 μg/mL to 0.25 μg/mL. The last two rows of each plate were control rows containing the culture media alone and the media plus fungi.
(§7) The fungi starter cultures were diluted 1:10 in water in cuvettes. This was then further diluted to an optical density (OD600) of 0.01 in media. 100 μL of the fungi was added to each well giving a starting concentration of fungus of 0.5-5×10^5/mL. One species of fungus was used on each plate. The plates were then held at 37° C. for 24 hours.
(§8) A plate reader was used to measure growth in each well at OD530 nm and the MIC was determined for each test compound. The MIC is defined as the lowest concentration giving rise to inhibition of ≥50% of that of the drug-free control well containing the fungus and media.
(§9) The compounds shown in Table 6 were tested against a further panel of Candida albicans.

Assay [15] deals with C. albicans 3645. Nature of the assay: Candida albicans panel MIC. The note with it: Table 6, Candida albicans panel. The format is cell-based. The method, then:
as §4, §5, §6, §7, §8, §9

In assay [16] the test system is C. albicans 3880. The assay can be described thus: Candida albicans panel MIC. The format is cell-based. The note with it: Table 6, Candida albicans panel. The protocol: as §4, §5, §6, §7, §8, §9
The subject of assay [17] is C. albicans 3881. Nature of the assay: Candida albicans panel MIC. The assay is classed as cell-based. The note with it: Table 6, Candida albicans panel. The protocol: as §4, §5, §6, §7, §8, §9
For assay [18], the system named is C. albicans 3882. The assay can be described thus: Candida albicans panel MIC. The format is cell-based. Particulars: Table 6, Candida albicans panel. The method, then: as §4, §5, §6, §7, §8, §9
Assay [19] relates to C. albicans 3990. Nature of the assay: Candida albicans panel MIC. The format is cell-based. The note with it: Table 6, Candida albicans panel. The method, then:
as §4, §5, §6, §7, §8, §9

The test system of assay [20] is C. albicans 8112. Nature of the assay: Candida albicans panel MIC. The format is cell-based. Particulars: Table 6, Candida albicans panel. The method, then:
as §4, §5, §6, §7, §8, §9

Setting [21] is: Candida albicans, Table 4, common panel, 24 hours, ≥50% inhibition.
The mark [22] stands for this setting: Table 6, Candida albicans panel.
Setting [23] is: NCPF8018, Table 4, common panel, 24 hours, ≥50% inhibition, read-out: MIC C. glabrata NCPF8018.
Where [24] appears, read: NCPF3876, Table 4, common panel, 24 hours, ≥50% inhibition, read-out: MIC C. krusei NCPF3876.
Where [25] appears, read: NCPF3209, Table 4, common panel, 24 hours, ≥50% inhibition, read-out: MIC C. parapsilosis NCPF3209.
Where [26] appears, read: NCPF8760, Table 4, common panel, 24 hours, ≥50% inhibition, read-out: MIC C. tropicalis NCPF8760.

MIC data for 3 compounds are collected here from patent US20240246920A1, “TRIAZOLE DERIVATIVES WITH ANTIFUNGAL ACTIVITY” (King's College London, priority 2020, published 2024).

Values after ≈ are worked out from the molar mass of the structure shown. Like-named read-outs stand apart in the source and are kept apart here.

For `OC(CN1CCC(Nc2ccc(Cc3ccccc3)cc2)CC1)(Cn1cncn1)c1ccc(F)cc1F` (stereo not shown) [Example 11, 1-(4-((4-benzylphenyl)amino)piperidin-1-yl)-2-(2,4-difluorophenyl)-3-(1H-1,2,4-triazol-1-yl)propan-2-ol], the MIC in [1] (setting [21]) was not above 0.125 µg/mL; in assay [1] (setting [22]), not above 0.00098 µg/mL; in assay [2] (setting [23]), not above 0.125 µg/mL; in assay [3] (setting [24]) it was not above 0.125 µg/mL; in [4] (setting [25]), not above 0.125 µg/mL; in [5] it was not above 0.125 µg/mL. Further, the MIC was not above 0.125 µg/mL in [6]; 0.125 µg/mL (≈ 0.248 µM) in assay [7]; not above 0.125 µg/mL in assay [8] (setting [26]); not above 0.125 µg/mL in [9]; not above 0.125 µg/mL in [10]; not above 0.125 µg/mL in [11]. For the same compound, the MIC in assay [12] was not above 0.125 µg/mL; in [13], not above 0.125 µg/mL; in assay [14], 0.0156 µg/mL (≈ 0.031 µM); in [15], 0.00391 µg/mL (≈ 0.00776 µM); in assay [16], 0.0313 µg/mL (≈ 0.0622 µM); in assay [17], 0.0313 µg/mL (≈ 0.0622 µM). Also, the MIC was 0.0625 µg/mL (≈ 0.124 µM) in [18], 0.0039 to 0.0625 µg/mL (≈ 0.00774 to 0.124 µM) in [19] and 0.00195 µg/mL (≈ 0.00387 µM) in [20].

With `OC(CN1CCC(N2CCC(Nc3ccc(Cc4ccccc4)cc3)CC2)CC1)(Cn1cncn1)c1ccc(F)cc1F` (stereo not shown) [Example 12, 1-(4-((4-benzylphenyl)amino)-[1,4′-bipiperidin]-1′-yl)-2-(2,4-difluorophenyl)-3-(1H-1,2,4-triazol-1-yl)propan-2-ol], the MIC in assay [1] (setting [21]) is not above 0.125 µg/mL; in assay [1] (setting [22]), 0.002 to 0.004 µg/mL (≈ 0.00341 to 0.00682 µM); in [2] (NCPF8018, read-out: MIC C. Glabrata NCPF8018), 0.25 µg/mL (≈ 0.426 µM); in assay [2] (setting [23]), 0.125 µg/mL (≈ 0.213 µM); in assay [3] (NCPF3876, read-out: MIC C. Krusei NCPF3876), not above 0.125 µg/mL; in assay [3] (setting [24]), not above 0.125 µg/mL. Further, the MIC in assay [4] (NCPF3209, read-out: MIC C. Parapsilosis NCPF3209) was not above 0.125 µg/mL; in assay [4] (setting [25]), not above 0.125 µg/mL; in [5], not above 0.125 µg/mL; in assay [6], not above 0.125 µg/mL; in assay [7], 0.125 µg/mL (≈ 0.213 µM); in assay [8] (setting [26]) it was not above 0.125 µg/mL. For the same compound, the MIC was not above 0.125 µg/mL in assay [8] (NCPF8760, read-out: MIC C. Tropicalis NCPF8760); not above 0.125 µg/mL in assay [9]; not above 0.125 µg/mL in assay [10]; not above 0.125 µg/mL in [11]; not above 0.125 µg/mL in assay [12]; not above 0.125 µg/mL in assay [13]. For the same compound, the MIC in assay [14] came out at 0.0625 µg/mL (≈ 0.107 µM); in assay [15], 0.00391 µg/mL (≈ 0.00666 µM); in assay [16], 0.0313 µg/mL (≈ 0.0533 µM); in [17], 0.0625 µg/mL (≈ 0.107 µM); in assay [18], 0.0625 µg/mL (≈ 0.107 µM); in assay [19], 0.0313 µg/mL (≈ 0.0533 µM). In addition, the MIC in assay [20] amounted to 0.00391 µg/mL (≈ 0.00666 µM).

Consider `OC(CN1CCC2(CCC(Nc3ccc(Cc4ccccc4)cc3)CC2)C1)(Cn1cncn1)c1ccc(F)cc1F` (stereo not shown) [Example 13, 1-(8-((4-benzylphenyl)amino)-2-azaspiro[4.5]decan-2-yl)-2-(2,4-difluorophenyl)-3-(1H-1,2,4-triazol-1-yl)propan-2-ol], for which the MIC in assay [1] (setting [21]) is not above 0.125 µg/mL; in [1] (setting [22]) it was not above 0.00098 µg/mL; in assay [2] (setting [23]) it was 0.25 µg/mL (≈ 0.448 µM); in assay [3] (setting [24]), not above 0.125 µg/mL; in assay [4] (setting [25]) it was not above 0.125 µg/mL; in [5] it was not above 0.125 µg/mL. Also, the MIC is not above 0.125 µg/mL in assay [6]; 0.25 µg/mL (≈ 0.448 µM) in assay [7]; not above 0.125 µg/mL in assay [8] (setting [26]); not above 0.125 µg/mL in assay [9]; not above 0.125 µg/mL in [10]; not above 0.125 µg/mL in assay [11]. The MIC in [12] is not above 0.125 µg/mL; in [13], not above 0.125 µg/mL; in assay [14], 0.125 µg/mL (≈ 0.224 µM); in assay [15], 0.00781 µg/mL (≈ 0.014 µM); in [16], 0.25 µg/mL (≈ 0.448 µM); in assay [17], 0.25 µg/mL (≈ 0.448 µM). Also, the MIC is 0.0313 to 2 µg/mL (≈ 0.0561 to 3.59 µM) in assay [18], 0.0625 µg/mL (≈ 0.112 µM) in assay [19] and 0.00049 to 0.00391 µg/mL (≈ 0.000879 to 0.00701 µM) in [20].
